Tested on: BRM-dependent transcription (BRG1 mutant lung cancer cell line A549)
Test: BRM-dependent transcription, MMTV luciferase reporter in BRG1 mutant A549 cells
Type: cell-based
Settings: Table 11; for IC50: A549-MMTV luciferase reporter, dexamethasone induced, 6 hours; for Ratio (MDA-MMTV IC50 (μM) divided by A549-MMTV IC50 (μM)): MMTV luciferase reporter cell lines, selectivity BRG1/BRM
Procedure: The potential inhibitory effects of compounds on BRG1 and BRM dependent transcription was study by testing the activity of against the BRG1 mutant lung cancer cell line A549 and a MDA cell line with BRM removed by CRISPR. Both cell lines were genetically engineered with a BRG1 or BRM-dependent mouse mammary tumor virus luciferase reporter. Luciferase transcription was induced by dexamethasone in the presence of compound at different concentrations and luminescence was measured using a plate reader 6 hours after stimulation.

| SMILES | IC50 (Homo sapiens, A549, 6 h) [nM] | Ratio (MDA-MMTV IC50 (μM) divided by A549-MMTV IC50 (μM)) | IC50 [nM] |
| --- | --- | --- | --- |
| CCOc1nn(-c2ccc3cnc(CNC(=O)c4cc(C(F)F)c5c(c4)S(=O)(=O)[C@@H](F)COC5)cc3n2)cc1F [Compound 501] | 13 | 30.55 | – |
| CCOc1nc([C@@H](F)CF)ccc1-c1ccc2cnc(CNC(=O)c3cc(C(F)F)c4c(c3)S(=O)(=O)[C@@H](F)COC4)cc2n1 [Compound 457] | – | 33.28 | 7.2 |
| CCOc1nc([C@@H](F)CF)ccc1-c1ccc2cnc(CNC(=O)c3cc(Cl)c4c(c3)S(=O)(=O)[C@@H](F)COC4)cc2n1 [Compound 475] | 7.1 | 37.21 | – |
| COCCCOc1cnc2c(c1)OCCN2c1ccc2cnc(CNC(=O)c3cc(C(F)F)c4c(c3)S(=O)(=O)[C@@H](F)COC4)cc2n1 [Compound 494] | 5.7 | 28.82 | – |
| COCCOc1cnc2c(-c3ccc4cnc(CNC(=O)c5cc(Cl)c6c(c5)S(=O)(=O)[C@@H](F)COC6)cc4n3)cccc2c1 [Compound 513] | 13.7 | 27.47 | – |
| COc1ccc(-c2ccc3cnc(CNC(=O)c4cc(C(F)F)c5c(c4)S(=O)(=O)[C@@H](F)COC5)cc3n2)nc1C1CC1(F)F (stereo partly drawn) [Compound 434] | 8.7 | 41.19 | – |
| CCOc1nc([C@H](C)F)ccc1-c1ccc2cnc(CNC(=O)c3cc(F)c4c(c3)S(=O)(=O)[C@@H](F)COC4)cc2n1 [Compound 395] | 4.7 | 21.65 | – |
| [2H]C([2H])([2H])C([2H])([2H])Oc1nc([C@@H](F)CF)ccc1-c1ccc2cnc(CNC(=O)c3cc(C(F)F)c4c(c3)S(=O)(=O)[C@@H](F)COC4)cc2n1 [Compound 479] | 6.2 | 35.46 | – |
| CCOc1nc([C@H](F)CF)ccc1-c1ccc2cnc(CNC(=O)c3cc(Cl)c4c(c3)S(=O)(=O)[C@@H](F)COC4)cc2n1 [Compound 481] | – | 50.79 | 10.2 |
| CCOc1nc([C@H](F)CF)ccc1-c1ccc2cnc(CNC(=O)c3cc(C(F)F)c4c(c3)S(=O)(=O)[C@@H](F)COC4)cc2n1 [Compound 460] | – | 41.47 | 10 |
| CCOc1nc(C(F)F)ccc1-c1ccc2cnc(CNC(=O)c3cc(Br)c4c(c3)S(=O)(=O)[C@@H](F)COC4)cc2n1 [Compound 436] | 13.1 | 43.58 | – |
| CCOc1nc([C@H](F)CF)ccc1-c1ccc2cnc(CNC(=O)c3cc(C(F)F)c4c(c3)S(=O)(=O)[C@@H](F)COC4)cc2n1 [Compound 518] | – | 35.47 | 21 |
| COc1nc([C@H](F)CF)ccc1-c1ccc2cnc(CNC(=O)c3cc(Cl)c4c(c3)S(=O)(=O)[C@@H](F)COC4)cc2n1 [Compound 380] | 9.1 | 33.44 | – |
| O=C(NCc1cc2nc(-c3ccc(OC(F)F)c([C@@H]4CC4(F)F)n3)ccc2cn1)c1cc(C(F)F)c2c(c1)S(=O)(=O)[C@@H](F)COC2 [Compound 451] | 5.6 | 25.86 | – |
| CCOc1nc([C@H](F)CF)ccc1-c1ccc2cnc(CNC(=O)c3cc(Br)c4c(c3)S(=O)(=O)[C@@H](F)COC4)cc2n1 [Compound 461] | 25.9 | 56.88 | – |
| O=C(NCc1cc2nc(-c3cccc4c3OC(F)(F)O4)ccc2cn1)c1cc(C(F)F)c2c(c1)S(=O)(=O)[C@@H](F)COC2 [Compound 503] | 17.3 | 33.25 | – |
| O=C(NCc1cc2nc(-c3ccc(OC(F)F)c(C4CC4)n3)ccc2cn1)c1cc(C(F)F)c2c(c1)S(=O)(=O)[C@@H](F)COC2 [Compound 415] | 7.6 | 35.99 | – |
| COc1nc(OC(F)F)ccc1-c1ccc2cnc(CNC(=O)c3cc(Cl)c4c(c3)S(=O)(=O)[C@@H](F)COC4)cc2n1 [Compound 409] | 14.1 | 25.36 | – |
| COc1nc(C(F)F)ccc1-c1ccc2cnc(CNC(=O)c3cc(Br)c4c(c3)S(=O)(=O)[C@@H](F)COC4)cc2n1 [Compound 410] | 14.3 | 27.39 | – |

The next lines start with the values.

| IC50 (Homo sapiens, A549, 6 h) [nM] | Ratio (MDA-MMTV IC50 (μM) divided by A549-MMTV IC50 (μM)) | IC50 [nM] | SMILES |
| --- | --- | --- | --- |
| 2.8 | 22.10 | – | C[C@@H]1CN(c2cccc(-c3cnc4cnc(CNC(=O)c5cc(F)c6c(c5)S(=O)(=O)[C@@H](F)CCO6)cc4n3)n2)C[C@H](C)O1 [Compound 405, (4R)—N-[[2-[6-[(2R,6S)-2,6-dimethylmorpholin-4-yl]-2-pyridyl]pyrido[3,4-b]pyrazin-7-yl]methyl]-4,9-difluoro-5,5-dioxo-3,4-dihydro-2H-1,5λ6-benzoxathiepine-7-carboxamide] |
| 14.1 | 21.68 | – | COc1ccccc1-c1ccc2cnc(CNC(=O)c3cc(F)c4c(c3)S(=O)(=O)[C@@H](F)CCO4)cc2n1 [Compound 338] |
| 16.5 | 32.34 | – | O=C(NCc1cc2nc(-c3ccc(OC(F)F)c(C4CC4)n3)ccc2cn1)c1cc(Br)c2c(c1)S(=O)(=O)[C@@H](F)COC2 [Compound 408] |
| 15.1 | 22.34 | – | COCCOc1cnc2c(c1)OCCN2c1ccc2cnc(CNC(=O)c3cc(Cl)c4c(c3)S(=O)(=O)[C@@H](F)CCO4)cc2n1 [Compound 414] |
| 12.9 | 24.67 | – | O=C(NCc1cc2nc(-c3ccc(C(F)F)c(C4CC4(F)F)n3)ccc2cn1)c1cc(F)c2c(c1)S(=O)(=O)[C@@H](F)CCO2 (stereo partly drawn) [Compound 399] |
| 23.9 | 52.60 | – | [2H]C1([2H])Oc2c(Cl)cc(C(=O)NCc3cc4nc(-c5cccc(OC(F)F)n5)ccc4cn3)cc2S(=O)(=O)[C@@H](F)C1([2H])[2H] [Compound 418] |
| 11.7 | 29.00 | – | C=Cc1cc(C(=O)NCc2cc3nc(-c4cccc(N5C[C@@H](C)O[C@@H](C)C5)n4)ccc3cn2)cc2c1OCC[C@H](F)S2(=O)=O [Compound 407] |
| 16.9 | 22.45 | – | COc1nc([C@](C)(F)C(F)F)ccc1-c1ccc2cnc(CNC(=O)c3cc(F)c4c(c3)S(=O)(=O)[C@@H](F)CCO4)cc2n1 [Compound 363] |
| 17.8 | 54.50 | – | [2H]C1([2H])Oc2c(F)cc(C(=O)NCc3cc4nc(-c5ccc(OCC)c(C6CC6(F)F)n5)ccc4cn3)cc2S(=O)(=O)[C@@]([2H])(F)C1([2H])[2H] (stereo partly drawn) [Compound 374] |
| 19 | 26.38 | – | O=C(NCc1cc2nc(-c3cccc(C(F)F)n3)ccc2cn1)c1cc(F)c2c(c1)S(=O)(=O)[C@@H](F)CCO2 [Compound 334] |
| 22.2 | 31.16 | – | O=C(NCc1cc2nc(-c3cccc(OC(F)(F)Cl)n3)ccc2cn1)c1cc(Cl)c2c(c1)S(=O)(=O)[C@@H](F)CCO2 [Compound 362] |
| 1.9 | 22.21 | – | O=C(NCc1cc2nc(-c3cccc(C4CC4)n3)ccc2cn1)c1ccc2c(c1)S(=O)(=O)[C@@H](F)CCOC2 [Compound 364] |
| 23 | 25.82 | – | O=C(NCc1cc2nc(N3CCOc4ccc(C(F)F)nc43)ccc2cn1)c1cc(Br)c2c(c1)S(=O)(=O)[C@@H](F)CCO2 [Compound 435] |
| 16.2 | 26.20 | – | [2H]C([2H])([2H])Oc1ccc(-c2ccc3cnc(CNC(=O)c4cc(Cl)c5c(c4)S(=O)(=O)[C@@H](F)COC5)cc3n2)nc1C1CC1 [Compound 523] |
| 17.1 | 26.85 | – | COc1ccc(-c2ccc3cnc(CNC(=O)c4cc(Cl)c5c(c4)S(=O)(=O)[C@@H](F)CCO5)cc3n2)nc1C1CC1(F)F (stereo partly drawn) [Compound 369] |
| 122 | 28.75 | – | C[C@@H]1CN(c2cccc(-c3ccc4cnc(CNC(=O)c5cc(F)c6c(c5)S(=O)(=O)[C@@H](F)CO6)cc4n3)n2)C[C@H](C)O1 [Compound 341] |
| 9.2 | 24.90 | – | [2H]C([2H])([2H])Oc1nc([C@H](F)CF)ccc1-c1ccc2cnc(CNC(=O)c3cc(F)c4c(c3)S(=O)(=O)[C@@H](F)CCO4)cc2n1 [Compound 394] |
| 10.4 | 32.08 | – | CCOc1nc([C@@H](F)CF)ccc1-c1ccc2cnc(CNC(=O)c3cc(Cl)c4c(c3)S(=O)(=O)[C@@H](F)CCO4)cc2n1 [Compound 423] |
| 19.4 | 40.09 | – | Cc1cc(C(=O)NCc2cc3nc(-c4cccc(C5CC5)n4)ccc3cn2)cc2c1OCC[C@H](F)S2(=O)=O [Compound 339] |
| 17.9 | 23.62 | – | O=C(NCc1cc2nc(-c3cccc(OC(F)F)c3)ccc2cn1)c1cc(F)c2c(c1)S(=O)(=O)[C@@H](F)CCO2 [Compound 342] |
| 16.3 | 30.32 | – | O=C(NCc1cc2nc(-c3cccc(C(F)(F)F)n3)ccc2cn1)c1cc(F)c2c(c1)S(=O)(=O)[C@@H](F)CCO2 [Compound 335] |
| 3 | 27.74 | – | [2H]C([2H])([2H])c1cc(C(=O)NCc2cc3nc(-c4cccc(N5C[C@@H](C)O[C@@H](C)C5)n4)ccc3cn2)cc2c1OCC[C@H](F)S2(=O)=O [Compound 433] |
| 8.8 | 28.72 | – | O=C(NCc1cc2nc(-c3ccc([C@H](F)C(F)F)c(C4CC4)n3)ccc2cn1)c1cc(F)c2c(c1)S(=O)(=O)[C@@H](F)COC2 [Compound 453] |
